For assay [1], the target named is T1, Human HDAC6 (GST-HDAC6) (Homo sapiens, UniProt Q9UBN7).
T1 sequence (Q9UBN7 1-1215): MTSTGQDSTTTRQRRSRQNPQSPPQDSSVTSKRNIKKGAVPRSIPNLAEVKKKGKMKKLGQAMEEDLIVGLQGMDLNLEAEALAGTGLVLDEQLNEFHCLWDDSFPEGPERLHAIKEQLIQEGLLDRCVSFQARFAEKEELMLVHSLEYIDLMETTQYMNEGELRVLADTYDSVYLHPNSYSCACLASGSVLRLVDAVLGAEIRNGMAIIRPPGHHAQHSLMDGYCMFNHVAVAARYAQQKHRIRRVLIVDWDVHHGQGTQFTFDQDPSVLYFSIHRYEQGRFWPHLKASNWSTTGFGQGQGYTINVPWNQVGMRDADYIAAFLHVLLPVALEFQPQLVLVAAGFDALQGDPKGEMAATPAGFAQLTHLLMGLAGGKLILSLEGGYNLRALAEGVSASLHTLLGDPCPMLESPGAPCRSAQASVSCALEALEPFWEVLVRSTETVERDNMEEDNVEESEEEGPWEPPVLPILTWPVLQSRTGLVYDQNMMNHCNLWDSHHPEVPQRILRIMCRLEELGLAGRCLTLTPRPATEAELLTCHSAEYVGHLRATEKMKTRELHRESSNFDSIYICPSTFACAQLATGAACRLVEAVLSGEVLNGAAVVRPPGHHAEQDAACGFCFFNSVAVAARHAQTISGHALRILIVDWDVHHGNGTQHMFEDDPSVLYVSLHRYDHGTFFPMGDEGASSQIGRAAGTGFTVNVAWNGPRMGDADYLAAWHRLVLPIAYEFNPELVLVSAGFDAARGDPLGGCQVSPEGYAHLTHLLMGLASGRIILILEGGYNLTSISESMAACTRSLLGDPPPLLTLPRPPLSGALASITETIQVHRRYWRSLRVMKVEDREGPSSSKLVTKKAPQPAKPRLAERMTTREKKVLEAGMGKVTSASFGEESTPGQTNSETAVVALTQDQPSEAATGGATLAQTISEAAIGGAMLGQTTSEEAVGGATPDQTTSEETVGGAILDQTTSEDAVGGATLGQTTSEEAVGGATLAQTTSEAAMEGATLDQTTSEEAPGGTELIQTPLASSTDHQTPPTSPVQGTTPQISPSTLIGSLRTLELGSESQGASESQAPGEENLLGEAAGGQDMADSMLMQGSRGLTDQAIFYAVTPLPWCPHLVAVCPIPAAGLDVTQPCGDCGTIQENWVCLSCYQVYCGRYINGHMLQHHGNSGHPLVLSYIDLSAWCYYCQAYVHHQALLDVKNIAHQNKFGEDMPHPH
Kind of assay: Jump-dilution assay, kinetics of relief of inhibition of HDAC6.
Description: (§1) Human HDAC6, as a chimeric form in which the full-length protein is preceded by glutathione S-transferase (GST), was purchased from BPS Bioscience.
From the slope of the lines and the intercepts (insets of Figure 1 E,G), one can calculate the apparent rate constants for formation of the inhibited complex and for its dissociation through Equation (4) (Table 1). Through Equation (5), the apparent dissociation constant of the EI complex could be calculated (Table 1). From jump-dilution assays of the type shown in Figure 1, right panels, the koff was independently calculated through Equation (2) (or from the linear part of the curves) in the presence of saturating substrate, to minimize the possibility that the inhibitor rebinds to the enzyme after dissociation (Table 1).
Panels (A,C,E,G): kinetics of onset of inhibition. […] Aliquots of reactions were stopped at different times with TSA and subsequently developed, as described in detailed methods in Supplementary information. […] The data were fitted to Equation (2) to determine the steady-state velocity values (vs), which were used to calculate IC50 and kobs (Table 1). The initial velocity was set to the value measured in the absence of the inhibitor. […] They were used to determine the mechanism of slow-binding inhibition, and estimates of kon, koff and Ki (Table 1). […]

The next assay relates to HDAC6. Particulars: cited from earlier work.
For assay [2], the target named is T1, Human HDAC6 (GST-HDAC6). Briefly: Kinetics of onset of inhibition of HDAC6, progress curves with Fluor de Lys Green substrate. Particulars: for slope factor (s): slope factor of the IC50 fit, Equation (1).
Description: as §1
The activity assay described here is based on the use of the commercially available Fluor de Lys Green substrate, which contains an acetylated lysine residue covalently bound through an amide bond to the amino group of a fluorophore, likely a rhodamine derivative. Deacetylation of the lysine residue makes the amide bond susceptible to trypsin cleavage with release of the fluorophore that is accompanied by fluorescence increase.
For activity assays in the absence of inhibitors, measured fluorescence values at different reaction times, after subtraction of the background fluorescence, were analyzed to determine the initial velocity of reactions from the initial linear part of the curve. […] If the onset and relief of inhibition were sufficiently fast, compared to the time of the assay, the steady-state velocity could be calculated from the linear part of the progress curve at long reaction times. […] Thus, we could calculate apparent values of kon (the second-order rate constant for formation of the enzyme–inhibitor complex) and koff (the first-order rate constant for dissociation of the enzyme–inhibitor complex) for a simple E + I ↔ EI equilibrium from Equation (4). From the observed rates of complex formation and dissociation, an apparent dissociation constant of the complex could be calculated (Equation (5); [31, 40]). kobs = kon^app [I] + koff (4) Ki^app = koff/kon^app (5)
The steady-state velocities were used to estimate the IC50 and cooperativity (if any) from the “slope factor” (s) by calculating the percentage residual activity as a function of inhibitor concentration, and fitting to Equation (1).
From jump-dilution assays of the type shown in Figure 1, right panels, the koff was independently calculated through Equation (2) (or from the linear part of the curves) in the presence of saturating substrate, to minimize the possibility that the inhibitor rebinds to the enzyme after dissociation (Table 1).
Aliquots of reactions were stopped at different times with TSA and subsequently developed, as described in detailed methods in Supplementary information. […] The data were fitted to Equation (2) to determine the steady-state velocity values (vs), which were used to calculate IC50 and kobs (Table 1). The initial velocity was set to the value measured in the absence of the inhibitor.
The test system of assay [3] is HDAC6 with respect to all other isoforms, including HDAC10. More on the design: method as in PMID 36528061. The following applies: cited from earlier work.
For assay [4], the system named is zebrafish HDAC6 CD2 (zHDAC6-CD2). More on the design: method as in PMID 36528061. The following applies: cited from earlier work.
A further assay deals with T2, Human HDAC6 (Homo sapiens, UniProt Q9UBN7).
T2 sequence (Q9UBN7 1-1215): T1 sequence (Q9UBN7 1-1215)
Kind of assay: Yonetani-Theorell analysis of the binding of ITF2357 and ITF3756 to HDAC6. The format is biochemical. The following applies: with respect to the Fluor de Lys substrate; parallel lines in Yonetani-Theorell plots.

On Human HDAC6 (GST-HDAC6) [1], `FC(F)c1nnc(-c2ccc(Cn3cc(-c4ccc(NC5=NCCN5)cc4)nn3)cc2)o1` [Compound 1] gave a dissociation rate constant (koff) of 0.000108 s⁻¹. In the assay on HDAC6, the concentration for half-maximal inhibition (IC50) was 7.7 nM. Also, on Human HDAC6 (GST-HDAC6) [2], affinity was put at a Ki of 8.9 ± 0.23 nM, the koff is 8.33e-05 s⁻¹ and the “slope factor (s)” value is listed as 0.96 ± 0.04. Moreover, on Human HDAC6 (GST-HDAC6) [2] (read-out: kon^app), the kon is 9330 M⁻¹ s⁻¹. In addition, the “selectivity for HDAC6 with respect to all other isoforms” value in assay [3] is “greater than 10^4”. Moreover, in assay [4], the “observed rate constant for the release from the enzyme in jump-dilution assays” value was “(9.6 ± 1.1) × 10^−3 min^−1” and the “rate constant for formation of the acyl-hydrazide from Compound 1” value is “(6.04 ± 0.22)×10^−3 min^−1”.
As for `O=C(NNC(=O)C(F)F)c1ccc(Cn2cc(-c3ccc(NC4=NCCN4)cc3)nn2)cc1` [Compound 1a], the half-inhibitory concentration (IC50) in the assay with HDAC6 is 1580 nM.
As for `NNC(=O)c1ccc(Cn2cc(-c3ccc(NC4=NCCN4)cc3)nn2)cc1` [Compound 1b], the half-maximal inhibitory concentration (IC50) with HDAC6 is 329 nM.
Turning to `CCN(CC)Cc1ccc2cc(COC(=O)Nc3ccc(C(=O)NO)cc3)ccc2c1` [ITF2357, reference compound], on Human HDAC6, the mechanism of inhibition result is “competitive inhibitor”. The “time after start of reaction at which steady-state velocity was reached” value on Human HDAC6 (GST-HDAC6) [2] (reaction started by addition of the enzyme) is recorded as “approximately 15 min”. Moreover, at Human HDAC6 (GST-HDAC6) [2], the “slope factor (s)” value amounted to 1.0 ± 0.06.
In the case of “[R-(E,E)]-7-[4-(Dimethylamino)phenyl]-N-hydroxy-4,6-dimethyl-7-oxo-2,4-heptadienamide [TSA, reference compound]”, the apparent koff on Human HDAC6 (GST-HDAC6) [1] (pre-incubated with 10 nM TSA for 90 min, 100-fold dilution, 25 µM Fluor-de-Lys Green) turned out to be 0.032 ± 0.008 min‐1. Besides, the “kinetic behaviour of onset and relief of inhibition” value on Human HDAC6 (GST-HDAC6) [2] (progress curves and jump-dilution assays) is reported as “Slow binding”.

As a reminder, the koff is the first-order rate constant of dissociation. The IC50 is the concentration needed to halve the response being measured. A word on the Ki: it is a measure of affinity in units of concentration, obtained from inhibition or displacement. High values mean lower affinity, low ones higher affinity. One may read the kon as a measure of how fast the partners come together.

The values above are taken from publication PMC10452033, “The Importance of the “Time Factor” for the Evaluation of Inhibition Mechanisms: The Case of Selected HDAC6 Inhibitors” (Biology, 2023).
